Counter-ions that a name gives are not always drawn.
What follows are compounds tested on T1, 1N4R p-tau (assay: p-tau aggregation modulator screen of 1280-compound library (ThS fluorescence net change over 16 h)). Conditions: not given.
T1 construct: made in house; host or cells: E. coli (PIMAX system)
Format: biochemical
Parameters: key to PTAI>2SD: *: PTAI>2SD

Row | SMILES | ThS net change
1 | CC[N+](C)(CC)CCC[n+]1c(-c2ccccc2)c2cc(N)ccc2c2ccc(N)cc21.[I-].[I-] [Propidium iodide] | 269
2 | Cc1ccc(O)c([C@H](CCN(C(C)C)C(C)C)c2ccccc2)c1 [Tolterodine tartrate] | 422
3 | Cc1cc(C(C)(C)C)cc(C)c1CC1=NCCN1 [Xylometazoline hydrochloride] | 295
4 | CC[C@]12CCCN3CCc4c(n(c5ccccc45)C(=O)C1)[C@@H]32 [Eburnamonine (-)] | 379
5 | COc1cccc2c1C(=O)c1c(O)c3c(c(O)c1C2=O)C[C@@](O)(C(=O)CO)C[C@@H]3O[C@H]1C[C@H](N)[C@@H](O)[C@H](C)O1 [Epirubicin hydrochloride] | 315

Same assay, conditions: 1280-compound library screen; ThS fluorescence net change over 16 h

Row | SMILES | ThS net change
6 | CC1(C)S[C@@H]2[C@H](NC(=O)Cc3ccccc3)C(=O)N2[C@H]1C(=O)O [Benzylpenicillin sodium] | 398
7 | CCOC(=O)n1ccn(C)c1=S [Carbimazole] | 380
8 | CC[N+](CC)(CC)CCC(O)(c1ccccc1)C1CCCCC1.[Cl-] (centres unmarked) [Tridihexethyl chloride] | 402
9 | CC(=O)Nc1ccc(O)cc1 [Acetaminophen] | 385
10 | CC(=O)OCC(=O)[C@@]12OC(C)(C)O[C@@H]1C[C@H]1[C@@H]3C[C@H](F)C4=CC(=O)C=C[C@]4(C)[C@@]3(F)[C@@H](O)C[C@@]12C [Fluocinonide] | 387
11 | CS(=O)(=O)c1ccc([C@@H](O)[C@@H](CO)NC(=O)C(Cl)Cl)cc1 [Thiamphenicol] | 380
12 | O=C(N/N=C/c1ccc([N+](=O)[O-])o1)c1ccc(O)cc1 [Nifuroxazide] | 402
13 | Cc1c(N)c(=O)n(-c2ccccc2)n1C [Ampyrone] | 388
14 | CN1C2CCCC1CC(NC(=O)c1nn(C)c3ccccc13)C2 (centres unmarked) [Granisetron] | 399
15 | Cl.O=C1OC(CN2CCOCC2)CN1/N=C/c1ccc([N+](=O)[O-])o1 (centres unmarked) [Furaltadone hydrochloride] | 385
16 | C[C@@H]1CN(c2c(F)c(N)c3c(=O)c(C(=O)O)cn(C4CC4)c3c2F)C[C@H](C)N1 [Sparfloxacin] | 403
17 | CC(C)NC[C@H](O)c1ccc(O)c(O)c1.Cl [(-)-Isoproterenol hydrochloride] | 400
18 | CC=CC(=O)N(CC)c1ccccc1C (mixture of isomers) [Crotamiton] | 386
19 | COc1cc2ncnc(Nc3ccc(F)c(Cl)c3)c2cc1OCCCN1CCOCC1 [Gefitinib] | 395
20 | O=C1CCc2cc(OCCCCc3nnnn3C3CCCCC3)ccc2N1 [Cilostazol] | 397
21 | CN(C)CC/C=C1/c2ccccc2Sc2ccc(Cl)cc21 [Chlorprothixene hydrochloride] | 392
22 | COc1cc(C)nc(-n2nc(C)cc2OC)n1 [Epirizole] | 389
23 | Cc1cc(O)c(C(=O)N[C@@H](C(=O)N[C@@H]2C(=O)N3C(C(=O)O)=C(CSc4nnnn4C)CS[C@H]23)c2ccc(O)cc2)cn1 [Cefpiramide] | 407
24 | C[N+]12CCC(CC1)C(OC(=O)C(O)(c1ccccc1)c1ccccc1)C2 (centres unmarked) [Clidinium bromide] | 389
25 | CC[N+](C)(CC)CCOC(=O)C1c2ccccc2Oc2ccccc21 [Methantheline bromide] | 400
26 | CCOC(=O)[C@@](C)(N)Cc1ccc(O)c(O)c1 [Methyldopate hydrochloride] | 385

Same assay, conditions: 1280-compound library screen; […]

Row | SMILES | ThS net change
27 | CN1CCN(C(=O)OC2c3nccnc3C(=O)N2c2ccc(Cl)cn2)CC1 (centres unmarked) [Zopiclone] | 407
28 | C=C(C)[C@@H]1[C@H]2OC(=O)[C@@H]1[C@]1(O)C[C@H]3O[C@]34C(=O)O[C@H]2[C@]14C [Picrotoxinin] | 390
29 | CC(C)C[C@H](CN)CC(=O)O [Pregabalin] | 400

Same assay, conditions: flag: p-tau aggregation inhibitor, ThS net change more than 2 SD from mean

Row | SMILES | PTAI>2SD
30 | CO[C@H]1/C=C/O[C@@]2(C)Oc3c(C)c(O)c4c(O)c(c(/C=N/N5CCN(C)CC5)c(O)c4c3C2=O)NC(=O)/C(C)=C\C=C\[C@H](C)[C@H](O)[C@@H](C)[C@@H](O)[C@@H](C)[C@H](OC(C)=O)[C@@H]1C [Rifampicin] | *

Same assay, conditions: library screen, ThS fluorescence net change over 16 h with p-tau

Row | SMILES | ThS net change
31 | CCCCCCC[N+](CC)(CC)CCCCc1ccc(Cl)cc1.Cc1ccc(S(=O)(=O)[O-])cc1 [Clofilium tosylate] | 326
32 | COc1ccc(C(Cl)=C(c2ccc(OC)cc2)c2ccc(OC)cc2)cc1 [Chlorotrianisene] | 235
33 | CO[C@H]1/C=C/O[C@@]2(C)Oc3c(C)c(O)c4c(O)c(c(/C=N/N5CCN(C)CC5)c(O)c4c3C2=O)NC(=O)/C(C)=C\C=C\[C@H](C)[C@H](O)[C@@H](C)[C@@H](O)[C@@H](C)[C@H](OC(C)=O)[C@@H]1C [Rifampicin] | 158
34 | COc1cc(C(=O)OCCCN2CCCN(CCCOC(=O)c3cc(OC)c(OC)c(OC)c3)CC2)cc(OC)c1OC.Cl.Cl [Dilazep dihydrochloride] | 286

Same assay, conditions: p-tau aggregation modulator screen of 1280-compound library; ThS fluorescence net change

Row | SMILES | ThS net change
35 | C[N+]1(C)CCC(=C(c2ccccc2)c2ccccc2)CC1 [Diphemanil methylsulfate] | 350
36 | CC[C@@H](CO)NCCN[C@@H](CC)CO [Ethambutol dihydrochloride] | 344
37 | Cl.NC1CCN(c2nc3c(cc2F)c(=O)c(C(=O)O)cn3-c2ccc(F)cc2F)C1 (centres unmarked) [Tosufloxacin hydrochloride] | 354
38 | Nc1nc2c(ncn2COCCO)c(=O)[nH]1 [Acyclovir] | 367
39 | CN1CCN(C(c2ccccc2)c2ccccc2)CC1.Cl [Cyclizine hydrochloride] | 377
40 | C=CC(N)CCC(=O)O (centres unmarked) [Vigabatrin] | 362
41 | CC[P](CC)(CC)=[Au][S][C@@H]1O[C@H](COC(C)=O)[C@@H](OC(C)=O)[C@H](OC(C)=O)[C@H]1OC(C)=O [Auranofin] | 365
42 | Cc1c(N(C)C)c(=O)n(-c2ccccc2)n1C [Amidopyrine] | 368
43 | c1ccc2c(c1)CCCC2C1=NCCN1 (centres unmarked) [Tetrahydrozoline hydrochloride] | 362
44 | Cc1nnc(NS(=O)(=O)c2ccc(N)cc2)s1 [Sulfamethizole] | 365
45 | Nc1ccc(S(=O)(=O)Nc2ccnn2-c2ccccc2)cc1 [Sulfaphenazole] | 334
46 | C#C[C@]1(O)CC[C@H]2[C@@H]3CCC4=CC(=O)CC[C@@H]4[C@H]3CC[C@@]21C [Norethindrone] | 356
47 | CO/N=C(\C(=O)N[C@@H]1C(=O)N2C(C(=O)O)=C(COC(N)=O)CS[C@H]12)c1ccco1 [Cefuroxime sodium salt] | 365
48 | CO[C@@H]1[C@@H](OC(N)=O)[C@@H](O)[C@H](Oc2ccc3c(O)c(NC(=O)c4ccc([O-])c(CC=C(C)C)c4)c(=O)oc3c2C)OC1(C)C.[Na+] [Novobiocin sodium salt] | 369
49 | C[C@]12CC[C@@H]3c4ccc(OS(=O)(=O)O)cc4CC[C@H]3[C@@H]1CCC2=O [Estropipate] | 359
50 | O=C(O)Cc1ccccc1Nc1c(Cl)cccc1Cl [Diclofenac sodium] | 376
51 | O=C(O)c1cc(=O)c2c(OCC(O)COc3cccc4oc(C(=O)O)cc(=O)c34)cccc2o1 [Cromolyn disodium salt] | 360
52 | Nc1ccc(C(=O)NCC(=O)O)cc1 [Aminohippuric acid] | 344
53 | C[C@@H]1CCC[C@H](C)N1NC(=O)c1ccc(Cl)c(S(N)(=O)=O)c1 [Clopamide] | 369
54 | CCC1(c2ccccc2)C(=O)NCNC1=O [Primidone] | 346
55 | OCCN1CCN(CCCN2c3ccccc3Sc3ccc(Cl)cc32)CC1 [Perphenazine] | 328
56 | CN/C(=N/CCSCc1nc[nH]c1C)NC#N [Cimetidine] | 356
57 | CC(C)(C)NCC(O)c1ccc(O)c(CO)c1 (centres unmarked) [Salbutamol] | 367

Same assay, conditions: p-tau aggregation modulator screen of 1280-compound library; […]

Row | SMILES | ThS net change
58 | CN(C)CCOC(=O)COc1ccc(Cl)cc1.Cl [Meclofenoxate hydrochloride] | 359
59 | CCC(=O)OCC(=O)[C@@]1(OC(=O)CC)[C@H](C)C[C@H]2[C@H]3[C@H]([C@@H](O)C[C@@]21C)[C@@]1(C)C=CC(=O)C=C1C[C@H]3Cl [Alclometasone dipropionate] | 363

Same assay, conditions: p-tau aggregation modulator screen of the compound library, ThS fluorescence net change

Row | SMILES | ThS net change
60 | O=C1NCCN1CCN1CCC(c2cn(-c3ccc(F)cc3)c3ccc(Cl)cc23)CC1 [Sertindole] | 434
61 | COc1cc([C@@H]2c3cc4c(cc3[C@@H](O[C@@H]3O[C@@H]5CO[C@@H](C)O[C@H]5[C@H](O)[C@H]3O)[C@H]3COC(=O)[C@H]23)OCO4)cc(OC)c1O [Etoposide] | 413
62 | CCC(=O)O[C@]1(C(=O)SCF)[C@H](C)C[C@H]2[C@@H]3C[C@H](F)C4=CC(=O)C=C[C@]4(C)[C@@]3(F)[C@@H](O)C[C@@]21C [Fluticasone propionate] | 503
63 | CCCc1nc(C)c2c(=O)[nH]c(-c3cc(S(=O)(=O)N4CCN(CC)CC4)ccc3OCC)nn12 [Vardenafil] | 414
64 | O=c1[nH]c(=O)n(C2CCCO2)cc1F (centres unmarked) [Tegafur] | 448
65 | CCCCC1C(=O)N(c2ccccc2)N(c2ccccc2)C1=O [Phenylbutazone] | 413
66 | CS(=O)(=O)O.Cc1ccc2c(c1)c1c3n2CCNC3CCC1 (centres unmarked) [Pirlindole mesylate] | 461
67 | COc1ccnc(C[S+]([O-])c2nc3ccc(OC(F)F)cc3[nH]2)c1OC (centres unmarked) [Pantoprazole sodium] | 443
68 | Clc1ccc(C(c2ccccc2Cl)C(Cl)Cl)cc1 (centres unmarked) [Mitotane] | 449
69 | CCCNC(C)C(=O)Nc1c(C)csc1C(=O)OC (centres unmarked) [Articaine hydrochloride] | 450
70 | CO[C@@]1(NC(=O)C(C(=O)O)c2ccc(O)cc2)C(=O)N2C(C(=O)O)=C(CSc3nnnn3C)CO[C@@H]21 (some centres unmarked) [Moxalactam disodium salt] | 419
71 | CC(C)Oc1ccc2c(=O)c(-c3ccccc3)coc2c1 [Ipriflavone] | 429
72 | Clc1ccc2c(c1)C(N1CCNCC1)=Nc1ccccc1O2 [Amoxapine] | 416
73 | CCC[C@H](N[C@@H](C)C(=O)N1[C@H](C(=O)O)C[C@@H]2CCCC[C@@H]21)C(=O)OCC [Perindopril] | 426
74 | O=C(O)CN(CCN(CC(=O)O)CC(=O)O)CCN(CC(=O)O)CC(=O)O [Pentetic acid] | 480

Source: paper PMC7539012, “Hyperphosphorylated tau aggregation and cytotoxicity modulators screen identified prescription drugs linked to Alzheimer's disease and cognitive functions” (Scientific Reports, 2020)
